Test results as given in ChEMBL document CHEMBL1201862, “PubChem BioAssay data set” (2004).
Activity calls are given as the source filed them.

How the values were obtained:
[1] = biological target: Steroidogenic factor 1 (Homo sapiens, UniProt Q13285); assay: Counterscreen for inverse agonists of the liver receptor homolog-1 (LRH-1; NR5A2): Luminescence-based cell-based high throughput dose response assay to identify inverse agonists of the Steroidogenic Factor 1 Nuclear Receptor (SF1; NR5A1).; format: functional
[2] = microbe, parasite or virus in culture; format: functional; settings: Mycobacterium tuberculosis
[3] = nonselective StAR promoter luciferase inhibitors – cell-based, luminescence, luciferase reporter, counter-screen for LRH-1 inverse agonist project, dose response (AID 651969); format: functional
[4] = cells
[5] = biological target: Nuclear receptor subfamily 5 group A member 2 (Homo sapiens, UniProt O00482); format: functional, cell-based;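 note: HEK293T cells transfected with LRH-1 and a StAR promoter luciferase reporter; potency for inhibitors that lower LRH-1 driven reporter light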
[6] = THP-1 cell cytotoxicity, dose response, cytotoxicity control for non-replicating M. tuberculosis project (AID 489025); format: functional
[7] = Vero E6 cell cytotoxicity, dose response, cytotoxicity control for non-replicating M. tuberculosis project, secondary assay (AID 492998); format: functional, VeroE6; settings: Vero C1008
[8] = NIH3T3 cell viability loss – ATP luminescence, mouse fibroblasts, counter-screen, dose response (AID 2010); format: functional, cell-based;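 note: cells exposed to compound for about 90 hours before reading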
[9] = cells; format: functional
[10] = Trypanosoma cruzi growth suppression in host cells – NIH3T3 host cells, beta-gal luminescence, confirmation (AID 2044); format: functional, cell-based;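 note: intracellular parasites grown in NIH/3T3 mouse fibroblasts as host cells; luminescent beta-galactosidase reporter signal from transgenic T. cruzi replicating inside host cells; inhibitors lower the luminescence signal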
[11] = test system: Vero; assay: inhibition of WNV-induced cytopathic effect – cell-based, CPE readout (AID 1621); format: functional; settings: Chlorocebus sabaeus
[12] = test system: Vero; assay: Vero cell viability after compound exposure – synthesized analogs, set II, cytotoxicity control for West Nile virus antiviral project, SAR follow-up (AID 2402); format: functional; settings: Chlorocebus sabaeus
[13] = test system: Vero; assay: antiviral protection of cells from WNV – synthesized analogs, SAR follow-up (AID 2238); format: functional, cell-based; settings: Chlorocebus sabaeus
[14] = biological target: Beta-galactosidase (Escherichia coli, UniProt Q8VNN2); assay: detection-enzyme interference by beta-gal modulators – biochemical, E. coli enzyme, set 3, artefact control for CCR6 antagonist project, dose response (AID 504712); format: functional
[15] = Luminescence Cell-Based Dose Retest to Confirm Inhibitors of Cancer Stem Cells. [Related pubchem assays (depositor defined):AID2717, AID2721]; format: functional; settings: Homo sapiens
[16] = DRD fibroblast viability loss – cell-based, non-viral oncogenic, luminescence, dose response (AID 1934); format: functional; settings: Homo sapiens
[17] = test system: BJ; assay: BJ-TERT fibroblast viability loss – cell-based, RAS-independent, luminescence, dose response (AID 1933); format: functional; settings: Homo sapiens
[18] = biological target: T1, Microphthalmia-associated transcription factor (Homo sapiens, UniProt O75030); assay: reducers of TRPM1 reporter luminescence, concentration series – cell-based, SK-MEL-5, cherry-picked, set 3, MITF inhibitor project, dose response (AID 493073); format: functional;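 note: SK-MEL-5 melanoma cells with luciferase driven by the MITF target TRPM1 promoter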
T1 sequence (O75030 whole entry): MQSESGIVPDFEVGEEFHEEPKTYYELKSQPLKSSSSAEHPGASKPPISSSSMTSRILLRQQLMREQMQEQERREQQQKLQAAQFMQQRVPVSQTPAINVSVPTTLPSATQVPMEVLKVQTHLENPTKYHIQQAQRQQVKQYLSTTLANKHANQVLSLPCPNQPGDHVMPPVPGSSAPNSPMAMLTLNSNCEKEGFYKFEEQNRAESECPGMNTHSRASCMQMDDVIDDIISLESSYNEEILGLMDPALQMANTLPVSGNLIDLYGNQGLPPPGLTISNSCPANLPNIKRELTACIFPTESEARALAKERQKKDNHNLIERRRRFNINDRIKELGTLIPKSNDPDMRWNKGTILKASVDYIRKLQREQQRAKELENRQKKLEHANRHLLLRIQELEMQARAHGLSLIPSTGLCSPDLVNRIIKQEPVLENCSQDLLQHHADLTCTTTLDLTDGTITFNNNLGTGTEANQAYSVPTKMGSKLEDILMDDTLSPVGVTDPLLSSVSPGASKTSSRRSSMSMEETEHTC

[19] = biological target: Nucleotide-binding oligomerization domain-containing protein 2 (Homo sapiens, UniProt Q9HC29); assay: inhibition of NOD2-driven NF-kB reporter – cell-based, luminescence, uHTS, HEK293 (AID 1566); format: functional
[20] = test system: HEK293; assay: inhibition of NOD1-driven NF-kB reporter – cell-based, luminescence, uHTS, primary screen (AID 1578); format: functional; settings: Homo sapiens
[21] = test system: HEK293; assay: cells; format: functional, cell-based; settings: Homo sapiens
[22] = test system: HEK293; assay: cells; format: functional, cell-based; settings: Homo sapiens; remark: listed apart in the source
[23] = test system: HEK293; assay: NOD2 signaling inhibitors in MDP-stimulated cells, cell-based, uHTS, luminescence (AID 2001); format: functional; settings: Homo sapiens
[24] = biological target: G-protein coupled receptor 55 (Homo sapiens, UniProt Q9Y2T6); assay: selective activators of receptor GPR55 – imaging, U2OS cells, beta-arrestin-GFP redistribution, primary screen (AID 1961); format: functional
[25] = test system: BJ; assay: BJ-TERT-LT-ST fibroblast viability loss – cell-based, RAS-independent, luminescence, dose response (AID 1935); format: functional; settings: Homo sapiens;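 note: BJ fibroblasts immortalized with TERT plus LT and ST oncogenes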
[26] = test system: BJ; assay: cells; format: functional, cell-based; settings: Homo sapiens
[27] = test system: HEK293; assay: cells; format: functional, cell-based; settings: Homo sapiens; remark: listed apart in the source
[28] = biological target: Genome polyprotein (dengue virus type 2, UniProt P29990); assay: flavivirus cap methylation enzyme inhibition – biochemical, confirmation dose response, primary screen (AID 588689); format: functional
[29] = viability loss in THP-1 monocytes – THP-1 cells, cytotoxicity control for Vif-APOBEC3G degradation inhibitor project, dose response (AID 1117359); format: functional; settings: THP-1
[30] = biological target: T2, Hexokinase HKDC1 (Homo sapiens, UniProt Q2TB90); assay: inhibition of HKDC1 glucose phosphorylation – biochemical, W721R variant, dose response (AID 504729); format: functional
T2 sequence (Q2TB90 whole entry): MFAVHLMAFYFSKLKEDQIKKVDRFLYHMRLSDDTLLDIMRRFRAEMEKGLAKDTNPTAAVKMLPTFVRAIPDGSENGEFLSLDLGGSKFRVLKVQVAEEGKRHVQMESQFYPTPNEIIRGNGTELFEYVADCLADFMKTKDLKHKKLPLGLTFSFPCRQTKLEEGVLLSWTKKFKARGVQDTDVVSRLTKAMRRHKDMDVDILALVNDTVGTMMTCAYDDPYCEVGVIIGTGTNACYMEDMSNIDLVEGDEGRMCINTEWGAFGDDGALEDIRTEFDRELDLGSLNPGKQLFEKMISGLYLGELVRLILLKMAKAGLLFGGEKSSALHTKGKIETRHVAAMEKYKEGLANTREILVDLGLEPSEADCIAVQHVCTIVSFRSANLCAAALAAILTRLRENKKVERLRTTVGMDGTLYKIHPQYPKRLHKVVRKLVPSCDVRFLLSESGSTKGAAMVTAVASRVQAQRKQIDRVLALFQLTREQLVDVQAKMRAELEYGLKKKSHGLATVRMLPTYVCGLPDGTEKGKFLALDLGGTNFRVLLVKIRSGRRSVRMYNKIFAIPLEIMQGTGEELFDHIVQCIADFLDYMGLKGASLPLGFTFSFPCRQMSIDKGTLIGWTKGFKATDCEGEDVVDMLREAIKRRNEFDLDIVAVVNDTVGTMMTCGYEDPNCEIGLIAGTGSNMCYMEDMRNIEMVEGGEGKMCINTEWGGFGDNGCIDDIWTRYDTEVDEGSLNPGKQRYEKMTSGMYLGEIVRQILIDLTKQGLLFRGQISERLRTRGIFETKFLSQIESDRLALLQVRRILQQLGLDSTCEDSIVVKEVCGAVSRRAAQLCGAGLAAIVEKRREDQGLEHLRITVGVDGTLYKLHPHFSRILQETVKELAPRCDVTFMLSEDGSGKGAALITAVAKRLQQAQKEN

[31] = biological target: Glucose-6-phosphate 1-dehydrogenase (Homo sapiens, UniProt P11413); assay: inhibition of Homo sapiens G6PD, dose series – biochemical, fluorescence, selectivity assay for P. falciparum G6PD inhibitor project, dose response (AID 504792); format: functional
[32] = biological target: T3, CAAX prenyl protease 2 (Saccharomyces cerevisiae S288c, UniProt Q03530); format: biochemical
T3 sequence (Q03530 whole entry): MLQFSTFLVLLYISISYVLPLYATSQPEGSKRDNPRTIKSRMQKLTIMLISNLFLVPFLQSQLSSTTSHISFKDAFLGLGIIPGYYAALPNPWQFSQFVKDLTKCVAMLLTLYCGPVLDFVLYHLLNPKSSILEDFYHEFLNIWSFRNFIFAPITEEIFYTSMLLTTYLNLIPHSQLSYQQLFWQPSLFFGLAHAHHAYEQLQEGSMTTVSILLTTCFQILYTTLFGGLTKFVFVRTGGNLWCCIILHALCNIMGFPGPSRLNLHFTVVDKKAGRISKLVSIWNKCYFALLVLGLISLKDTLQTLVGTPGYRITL

[33] = biological target: Trypsin (Sus scrofa, UniProt P00761); assay: trypsin protease activity blockade – biochemical, quenched peptide fluorescence, cherry-pick, selectivity assay for Rce1 protease inhibitor project, dose response (AID 488789)
[34] = biological target: Tumor necrosis factor (Homo sapiens, UniProt P01375); assay: analog potency on TNFa NF-kB signaling – cell-based, revised, SAR follow-up (AID 2337); format: functional
[35] = test system: HEK293; assay: cells; settings: Homo sapiens
[36] = biological target: T4, Nucleotide-binding oligomerization domain-containing protein 1 (Homo sapiens, UniProt Q9Y239); assay: blockers of NOD1 pathway activity – revised, SAR follow-up (AID 2333); format: functional
T4 sequence (Q9Y239 whole entry): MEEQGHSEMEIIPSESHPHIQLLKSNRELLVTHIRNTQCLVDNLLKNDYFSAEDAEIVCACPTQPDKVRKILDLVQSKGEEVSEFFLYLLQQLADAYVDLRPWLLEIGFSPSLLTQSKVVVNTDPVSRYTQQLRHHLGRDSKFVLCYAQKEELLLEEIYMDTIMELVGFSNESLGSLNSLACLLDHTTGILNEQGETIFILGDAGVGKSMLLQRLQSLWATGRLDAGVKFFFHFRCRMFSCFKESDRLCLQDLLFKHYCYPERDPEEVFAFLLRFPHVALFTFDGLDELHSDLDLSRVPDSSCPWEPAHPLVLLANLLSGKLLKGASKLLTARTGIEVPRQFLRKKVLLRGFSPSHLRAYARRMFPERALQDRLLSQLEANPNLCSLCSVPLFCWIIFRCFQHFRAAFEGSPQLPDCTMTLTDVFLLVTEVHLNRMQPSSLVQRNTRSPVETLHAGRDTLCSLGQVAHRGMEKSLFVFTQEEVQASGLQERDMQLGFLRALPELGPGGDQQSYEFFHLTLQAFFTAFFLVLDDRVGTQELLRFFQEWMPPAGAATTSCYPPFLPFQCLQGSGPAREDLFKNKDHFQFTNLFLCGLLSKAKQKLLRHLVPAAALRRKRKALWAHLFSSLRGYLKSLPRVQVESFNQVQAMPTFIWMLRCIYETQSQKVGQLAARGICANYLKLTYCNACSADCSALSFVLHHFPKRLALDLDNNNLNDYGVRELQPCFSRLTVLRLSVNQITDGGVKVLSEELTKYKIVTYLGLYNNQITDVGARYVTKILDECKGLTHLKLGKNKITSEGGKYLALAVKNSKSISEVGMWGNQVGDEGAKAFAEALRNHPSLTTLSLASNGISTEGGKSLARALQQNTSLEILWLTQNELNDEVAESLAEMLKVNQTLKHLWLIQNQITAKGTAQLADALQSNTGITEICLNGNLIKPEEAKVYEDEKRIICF

Sequence of Beta-galactosidase (Q8VNN2 whole entry): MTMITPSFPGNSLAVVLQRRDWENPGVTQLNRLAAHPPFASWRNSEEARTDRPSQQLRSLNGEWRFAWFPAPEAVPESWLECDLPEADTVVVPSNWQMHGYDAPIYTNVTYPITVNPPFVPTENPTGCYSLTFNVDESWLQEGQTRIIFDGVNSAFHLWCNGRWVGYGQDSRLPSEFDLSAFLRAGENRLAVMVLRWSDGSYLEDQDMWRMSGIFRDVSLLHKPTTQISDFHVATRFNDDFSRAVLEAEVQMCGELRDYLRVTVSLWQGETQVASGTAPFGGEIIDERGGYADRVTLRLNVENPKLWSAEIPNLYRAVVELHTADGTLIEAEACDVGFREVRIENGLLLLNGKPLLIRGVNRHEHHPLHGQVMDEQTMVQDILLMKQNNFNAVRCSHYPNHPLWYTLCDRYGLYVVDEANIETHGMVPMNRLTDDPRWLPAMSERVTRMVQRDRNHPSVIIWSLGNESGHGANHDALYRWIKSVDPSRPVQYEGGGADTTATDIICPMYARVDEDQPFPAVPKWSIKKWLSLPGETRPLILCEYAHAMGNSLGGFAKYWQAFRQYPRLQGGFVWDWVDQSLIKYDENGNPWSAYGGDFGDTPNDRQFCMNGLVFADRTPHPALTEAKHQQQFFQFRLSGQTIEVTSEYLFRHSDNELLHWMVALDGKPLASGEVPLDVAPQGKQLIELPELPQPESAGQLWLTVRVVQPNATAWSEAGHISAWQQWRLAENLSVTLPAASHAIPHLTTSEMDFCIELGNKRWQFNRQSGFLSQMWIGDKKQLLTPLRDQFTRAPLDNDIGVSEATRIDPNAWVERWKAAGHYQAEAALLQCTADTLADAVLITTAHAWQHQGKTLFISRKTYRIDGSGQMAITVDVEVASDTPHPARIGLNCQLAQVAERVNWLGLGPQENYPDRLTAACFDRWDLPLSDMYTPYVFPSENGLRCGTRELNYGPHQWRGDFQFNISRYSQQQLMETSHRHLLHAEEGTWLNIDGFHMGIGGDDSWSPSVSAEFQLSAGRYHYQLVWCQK
Sequence of Nucleotide-binding oligomerization domain-containing protein 2 (Q9HC29 whole entry, the tested form may be a part): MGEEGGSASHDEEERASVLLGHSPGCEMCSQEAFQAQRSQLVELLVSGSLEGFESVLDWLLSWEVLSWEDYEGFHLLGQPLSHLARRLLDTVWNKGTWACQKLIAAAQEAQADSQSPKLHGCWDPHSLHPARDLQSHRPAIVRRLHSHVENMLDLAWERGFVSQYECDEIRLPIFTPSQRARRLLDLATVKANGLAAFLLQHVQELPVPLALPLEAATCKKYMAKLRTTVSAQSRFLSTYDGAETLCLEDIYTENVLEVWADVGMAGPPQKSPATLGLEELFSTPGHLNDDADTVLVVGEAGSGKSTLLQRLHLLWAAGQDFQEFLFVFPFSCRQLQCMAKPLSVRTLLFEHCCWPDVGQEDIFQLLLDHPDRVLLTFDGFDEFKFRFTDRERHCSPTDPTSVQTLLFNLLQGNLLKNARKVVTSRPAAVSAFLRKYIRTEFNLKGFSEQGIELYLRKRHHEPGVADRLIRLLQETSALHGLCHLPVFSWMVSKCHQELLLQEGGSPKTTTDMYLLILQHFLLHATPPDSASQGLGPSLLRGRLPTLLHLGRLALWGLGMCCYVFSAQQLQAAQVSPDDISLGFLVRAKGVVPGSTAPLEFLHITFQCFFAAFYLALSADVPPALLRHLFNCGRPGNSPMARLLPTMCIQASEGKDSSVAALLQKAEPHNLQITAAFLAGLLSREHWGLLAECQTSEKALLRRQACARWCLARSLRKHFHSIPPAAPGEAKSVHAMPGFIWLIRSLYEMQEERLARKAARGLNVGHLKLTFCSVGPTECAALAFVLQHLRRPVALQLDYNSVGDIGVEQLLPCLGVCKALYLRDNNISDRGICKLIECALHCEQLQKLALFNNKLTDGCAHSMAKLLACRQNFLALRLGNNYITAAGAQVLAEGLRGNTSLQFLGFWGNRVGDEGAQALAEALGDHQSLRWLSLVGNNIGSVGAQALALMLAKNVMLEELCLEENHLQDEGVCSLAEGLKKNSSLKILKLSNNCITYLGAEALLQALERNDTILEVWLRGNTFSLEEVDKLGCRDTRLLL
Sequence of Nuclear receptor subfamily 5 group A member 2 (O00482 whole entry): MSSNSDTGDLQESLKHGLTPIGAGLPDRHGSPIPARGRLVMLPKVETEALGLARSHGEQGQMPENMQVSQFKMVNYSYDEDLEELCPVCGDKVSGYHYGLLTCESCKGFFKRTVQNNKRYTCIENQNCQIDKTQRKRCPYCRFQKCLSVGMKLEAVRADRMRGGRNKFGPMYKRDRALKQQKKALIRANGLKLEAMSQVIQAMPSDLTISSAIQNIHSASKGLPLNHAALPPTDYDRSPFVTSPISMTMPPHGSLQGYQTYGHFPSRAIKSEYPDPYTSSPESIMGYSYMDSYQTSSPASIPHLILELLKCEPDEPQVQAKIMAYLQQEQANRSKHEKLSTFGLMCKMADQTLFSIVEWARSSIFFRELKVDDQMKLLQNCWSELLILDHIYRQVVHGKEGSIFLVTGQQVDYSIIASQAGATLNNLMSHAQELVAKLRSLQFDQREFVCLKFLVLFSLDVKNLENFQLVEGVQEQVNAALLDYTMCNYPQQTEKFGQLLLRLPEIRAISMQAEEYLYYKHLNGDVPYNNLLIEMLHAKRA
Sequence of G-protein coupled receptor 55 (Q9Y2T6 whole entry): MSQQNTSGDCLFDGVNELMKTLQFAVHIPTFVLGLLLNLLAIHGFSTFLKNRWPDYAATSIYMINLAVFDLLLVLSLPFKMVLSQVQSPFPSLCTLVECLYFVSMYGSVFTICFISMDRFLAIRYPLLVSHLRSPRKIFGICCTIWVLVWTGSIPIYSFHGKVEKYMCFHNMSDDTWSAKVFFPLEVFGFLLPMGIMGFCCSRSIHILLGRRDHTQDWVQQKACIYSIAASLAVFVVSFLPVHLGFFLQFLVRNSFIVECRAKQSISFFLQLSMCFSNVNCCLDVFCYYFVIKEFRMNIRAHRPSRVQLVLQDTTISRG
Sequence of Glucose-6-phosphate 1-dehydrogenase (P11413 whole entry): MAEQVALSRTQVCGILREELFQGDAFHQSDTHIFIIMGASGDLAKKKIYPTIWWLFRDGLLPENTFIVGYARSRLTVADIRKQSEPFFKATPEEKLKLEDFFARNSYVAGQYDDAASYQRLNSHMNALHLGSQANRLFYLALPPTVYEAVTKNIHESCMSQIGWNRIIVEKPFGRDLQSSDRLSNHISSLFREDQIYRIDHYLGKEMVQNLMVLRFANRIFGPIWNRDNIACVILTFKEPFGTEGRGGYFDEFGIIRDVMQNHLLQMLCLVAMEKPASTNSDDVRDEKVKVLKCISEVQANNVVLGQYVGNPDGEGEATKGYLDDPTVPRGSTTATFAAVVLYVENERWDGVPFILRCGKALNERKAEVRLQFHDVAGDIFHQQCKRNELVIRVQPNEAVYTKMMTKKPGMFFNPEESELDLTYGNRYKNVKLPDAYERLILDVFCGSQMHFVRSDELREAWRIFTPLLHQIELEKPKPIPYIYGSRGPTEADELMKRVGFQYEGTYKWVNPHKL
Sequence of Steroidogenic factor 1 (Q13285 whole entry): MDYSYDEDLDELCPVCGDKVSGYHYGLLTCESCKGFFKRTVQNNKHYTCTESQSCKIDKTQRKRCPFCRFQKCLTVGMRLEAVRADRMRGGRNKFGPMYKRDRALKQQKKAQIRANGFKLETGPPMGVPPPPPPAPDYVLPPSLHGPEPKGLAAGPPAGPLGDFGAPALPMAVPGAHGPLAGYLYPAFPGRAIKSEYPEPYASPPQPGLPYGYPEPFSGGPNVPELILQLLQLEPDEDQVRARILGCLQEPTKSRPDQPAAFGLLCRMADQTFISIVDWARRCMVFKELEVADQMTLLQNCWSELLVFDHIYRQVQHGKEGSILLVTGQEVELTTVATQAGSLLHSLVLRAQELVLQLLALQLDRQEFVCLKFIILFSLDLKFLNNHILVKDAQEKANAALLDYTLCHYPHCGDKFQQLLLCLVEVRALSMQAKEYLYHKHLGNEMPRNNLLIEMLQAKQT
Sequence of Genome polyprotein (P29990 2492-3391 limits assumed): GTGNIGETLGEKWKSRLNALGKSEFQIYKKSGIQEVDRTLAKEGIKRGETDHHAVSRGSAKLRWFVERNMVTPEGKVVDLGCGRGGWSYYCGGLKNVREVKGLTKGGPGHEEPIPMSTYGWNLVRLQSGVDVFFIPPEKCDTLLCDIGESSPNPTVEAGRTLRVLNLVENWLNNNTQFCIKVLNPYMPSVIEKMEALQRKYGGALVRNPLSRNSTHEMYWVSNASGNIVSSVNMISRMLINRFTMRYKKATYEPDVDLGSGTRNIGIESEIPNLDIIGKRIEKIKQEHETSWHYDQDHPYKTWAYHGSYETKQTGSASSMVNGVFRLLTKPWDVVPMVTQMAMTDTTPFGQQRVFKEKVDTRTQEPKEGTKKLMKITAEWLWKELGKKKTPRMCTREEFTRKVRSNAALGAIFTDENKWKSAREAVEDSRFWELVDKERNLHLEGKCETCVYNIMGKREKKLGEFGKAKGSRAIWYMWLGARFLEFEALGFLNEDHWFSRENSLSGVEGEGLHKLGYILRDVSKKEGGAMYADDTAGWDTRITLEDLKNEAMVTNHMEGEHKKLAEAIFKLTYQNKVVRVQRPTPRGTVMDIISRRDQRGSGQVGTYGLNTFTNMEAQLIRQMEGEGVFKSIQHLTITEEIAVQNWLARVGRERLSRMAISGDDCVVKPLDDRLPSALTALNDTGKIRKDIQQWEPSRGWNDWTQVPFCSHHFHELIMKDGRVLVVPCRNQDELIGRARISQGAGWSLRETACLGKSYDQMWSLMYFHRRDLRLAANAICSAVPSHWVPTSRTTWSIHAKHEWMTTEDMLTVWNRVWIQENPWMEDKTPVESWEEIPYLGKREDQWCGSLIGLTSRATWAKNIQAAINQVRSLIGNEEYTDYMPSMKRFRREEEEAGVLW
Sequence of Trypsin (P00761 whole entry): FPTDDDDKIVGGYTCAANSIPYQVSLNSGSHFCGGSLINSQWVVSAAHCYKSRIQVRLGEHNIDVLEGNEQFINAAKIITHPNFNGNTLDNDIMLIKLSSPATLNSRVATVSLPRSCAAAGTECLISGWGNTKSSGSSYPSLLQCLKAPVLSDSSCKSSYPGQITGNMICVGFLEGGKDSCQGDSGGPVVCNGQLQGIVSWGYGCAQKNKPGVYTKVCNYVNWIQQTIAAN

SMILES: Cc1onc(-c2c(F)cccc2Cl)c1C(=O)ON=C(N)c1ccc([N+](=O)[O-])o1
- IC50 [1]: 0.143 µM (active)
- CC50 [2]: 21.2 µM (active)
- IC50 [3]: 35.9 µM (inactive)
- EC50 [4]: 0.015 µM (active)
- IC50 [5]: 0.143 µM (active)
- CC50 [6]: 17.8 µM (active)
- CC50 [7]: > 20 µM (active)
- EC50 [8]: 12.7 µM (active)
- IC50 [9]: 4.6 µM (active)
- EC50 [10]: < 0.1 µM (active)

SMILES: O=C(CSc1nc2ccccc2c(=O)n1-c1ccc(F)cc1F)Nc1ccc(N2CCOCC2)cc1
- IC50 [11]: 26.7 µM (active)
- CC50 [12]: > 200 µM (active)
- IC50 [13]: 38.1 µM (active)

SMILES: Cc1ccc(C(NC(=O)C(C)C)c2cc([N+](=O)[O-])c3cccnc3c2O)cc1 (centres undefined)
- IC50 [14]: > 66.6 µM (inactive)
- AC50 [15]: 1.02 µM (active)

SMILES: O=C1NC(=O)N(Cc2ccccc2)C(=O)/C1=C/C=C/c1ccco1
- EC50 [16]: 5.85 µM (inconclusive)
- EC50 [17]: 5.74 µM (inconclusive)
- AC50 [18]: 4.85 µM (active)
- EC50 [19]: > 20 µM (inactive)
- EC50 [20]: > 20 µM (inactive)
- AC50 [15]: 1.47 µM (active)
- IC50 [21]: > 20 µM (inactive)
- IC50 [22]: 17.5 µM (active)
- IC50 [23]: > 20 µM (inactive)
- EC50 [24]: > 32 µM (inactive)
- EC50 [25]: 4.14 µM (active)
- EC50 [26]: 8.18 µM (active)
- IC50 [27]: > 20 µM (inactive)

SMILES: COC1=C(OC)C(=O)C(Sc2ccc3ccccc3c2)=CC1=O
- IC50 [28]: 5.09 µM (active)
- IC50 [14]: > 66.6 µM (inactive)
- CC50 [29]: > 40 µM (active)
- IC50 [30]: 3.33 µM (active)
- IC50 [31]: 18.7 µM (active)

SMILES: Cc1cc(-c2ccccc2)n2nc(C)c(C#N)c2n1
- AC50 [32]: 15.5 µM (active)
- AC50 [33]: 3.3 µM (active)

SMILES: Cc1cccc(-n2ncc3c2CCCC3NC(=O)C2(C(N)=O)CC2)c1C (centres undefined)
- IC50 [34]: 14.5 µM (active)
- EC50 [19]: 19.7 µM (active)
- IC50 [35]: > 20 µM (inactive)
- EC50 [20]: 2.53 µM (active)
- IC50 [21]: > 20 µM (inactive)
- IC50 [22]: 9.93 µM (active)
- IC50 [36]: 4.31 µM (active)
- IC50 [23]: 16.2 µM (inactive)
- IC50 [27]: > 20 µM (inactive)
